# Measurements as given in US6479435B1, “Diaryl ethers and processes for their preparation and herbicidal and desiccant compositions containing them” (ISK Americas Incorporated, priority 1997, dated 2002).
# Experiments:
# Type in all cases: in vivo
# [1] = system: Johnsongrass (Sorghum halepense, SORHA); experiment: Pre-emerge greenhouse herbicide test, phytotoxicity rating; conditions: 14 days after application, rating scale 0-100
# Description: (§1) A standard greenhouse herbicide activity screening system was used to evaluate the herbicidal efficacy and crop safety of these test compounds. Six broadleaf weed species including redroot pigweed (Amaranthus retroflexus, AMARE), velvetleaf (Abutilon theophrasti, ABUTH), sicklepod (Cassia obtusifolia, CASOB), ivyleaf morningglory (Ipomoea hederacea, IPOHE), lambsquarters (Chenopodium album, CHEAL) and common ragweed (Ambrosia artemisiifolia L., AMBEL) were used as test species. Four grass weed species including green foxtail (Setaria viridis, SETVI), barnyardgrass (Echinochloa crusgalli, ECHCG), Johnsongrass (Sorghum halepense, SORHA), and large crabgrass (Digitaria sanguinalis, DIGSA) were also used. In addition, three crop species, field corn (Zea mays L., var. Dekalb 535, CORN), soybean (Glycine max L., var. Pella 86, SOY), and upland rice (Oryza sp., var.Tebonnet, RICE) were included.
# (§2) All plants were grown in 10 cm square plastic pots which were filled with a sandy loam soil mix. For preemerge tests, seeds were planted one day prior to application of the test compounds. Immediately after application, test units of the pre-emerge applications were watered at the soil surface to incorporate the test materials. Subsequently, these test units were bottom-watered.
# (§3) All test compounds were dissolved in acetone and applied to the test units in a volume of 187 l/ha. Test materials were applied at rates ranging from 125 g ai/ha to 1000 g ai/ha using a track sprayer equipped with a TJ8001E even flow flat fan spray nozzle. Plants were arranged on a shelf so that the top of the canopy (post-emerge) or top of the soil surface (pre-emerge) was 40-45 cm below the nozzle. Pressurized air was used to force the test solution through the nozzle as it was mechanically advanced (via electrically driven chain drive) over the top of all test plants/pots. This application simulates a typical commercial field herbicide application.
# (§4) At 14 days after application of the test materials, phytotoxicity ratings were recorded. A rating scale of 0-100 was used as previously described in Research Methods in Weed Science, 2nd edition, B. Truelove, Ed., Southern Weed Science Society, Auburn University, Auburn, Ala., 1977. Briefly, “0” corresponds to no damage and “100” corresponds to complete death of all plants in the test unit. This scale was used both to determine efficacy against weed species and damage to crop species. Herbicide activity data for various compounds of this invention, which are shown by compound number in Tables 1-9, are shown in Tables 13 and 14.
# [2] = system: barnyardgrass (Echinochloa crusgalli, ECHCG); experiment: as above; conditions: 14 days after application, rating scale 0-100
# Description: as §1, §2, §3, §4
# [3] = system: green foxtail (Setaria viridis, SETVI); experiment: as above; conditions: 14 days after application, rating scale 0-100
# Description: as §1, §2, §3, §4
# [4] = system: ivyleaf morningglory (Ipomoea hederacea, IPOHE); experiment: as above; conditions: 14 days after application, rating scale 0-100
# Description: as §1, §2, §3, §4
# [5] = system: lambsquarters (Chenopodium album, CHEAL); experiment: as above; conditions: 14 days after application, rating scale 0-100
# Description: as §1, §2, §3, §4
# [6] = system: large crabgrass (Digitaria sanguinalis, DIGSA); experiment: as above; conditions: 14 days after application, rating scale 0-100
# Description: as §1, §2, §3, §4
# [7] = system: redroot pigweed (Amaranthus retroflexus, AMARE); experiment: as above; conditions: 14 days after application, rating scale 0-100
# Description: as §1, §2, §3, §4
# [8] = system: sicklepod (Cassia obtusifolia, CASOB); experiment: as above; conditions: 14 days after application, rating scale 0-100
# Description: as §1, §2, §3, §4
# [9] = system: velvetleaf (Abutilon theophrasti, ABUTH); experiment: as above; conditions: 14 days after application, rating scale 0-100
# Description: as §1, §2, §3, §4
# [10] = system: field corn (Zea mays L., var. Dekalb 535, CORN); experiment: Pre-emerge greenhouse test, crop damage rating; conditions: 14 days after application, rating scale 0-100
# Description: as §1, §2, §3, §4
# [11] = system: upland rice (Oryza sp., var.Tebonnet, RICE); experiment: Pre-emerge greenhouse test, crop damage rating; conditions: 14 days after application, rating scale 0-100
# Description: as §1, §2, §3, §4
# [12] = system: soybean (Glycine max L., var. Pella 86, SOY); experiment: Pre-emerge greenhouse test, crop damage rating; conditions: 14 days after application, rating scale 0-100
# Description: as §1, §2, §3, §4
# [13] = system: Johnsongrass (Sorghum halepense, SORHA); experiment: Post-emerge greenhouse herbicide test, phytotoxicity rating; conditions: 14 days after application
# Description: as §1, §3
# (§5) In the post-emerge test, a commercial non-ionic surfactant was also included (0.25% v/v) to enhance wetting of the leaf surfaces Qf target plants at rates ranging from 63 g ai/ha to 1000 g ai/ha. For post-emerge tests, seeds were planted 8-21 days prior to the test to allow emergence and good foliage development prior to application of the test substances. At the time of the post-emerge application, plants of all species were usually at the 2-3 leaf stage of development. Post-emerge test units were always bottom-watered.
# as §4
# [14] = system: barnyardgrass (Echinochloa crusgalli, ECHCG); experiment: as above; conditions: 14 days after application
# Description: as §1, §3, §5, §4
# [15] = system: green foxtail (Setaria viridis, SETVI); experiment: as above; conditions: 14 days after application
# Description: as §1, §3, §5, §4
# [16] = system: ivyleaf morningglory (Ipomoea hederacea, IPOHE); experiment: as above; conditions: 14 days after application
# Description: as §1, §3, §5, §4
# [17] = system: lambsquarters (Chenopodium album, CHEAL); experiment: as above; conditions: 14 days after application
# Description: as §1, §3, §5, §4
# [18] = system: large crabgrass (Digitaria sanguinalis, DIGSA); experiment: as above; conditions: 14 days after application
# Description: as §1, §3, §5, §4
# [19] = system: redroot pigweed (Amaranthus retroflexus, AMARE); experiment: as above; conditions: 14 days after application
# Description: as §1, §3, §5, §4
# [20] = system: sicklepod (Cassia obtusifolia, CASOB); experiment: as above; conditions: 14 days after application
# Description: as §1, §3, §5, §4
# [21] = system: velvetleaf (Abutilon theophrasti, ABUTH); experiment: as above; conditions: 14 days after application
# Description: as §1, §3, §5, §4
# [22] = system: field corn (Zea mays L., var. Dekalb 535, CORN); experiment: Post-emerge greenhouse test, crop damage rating; conditions: 14 days after application
# Description: as §1, §3, §5, §4
# [23] = system: upland rice (Oryza sp., var.Tebonnet, RICE); experiment: Post-emerge greenhouse test, crop damage rating; conditions: 14 days after application
# Description: as §1, §3, §5, §4
# [24] = system: soybean (Glycine max L., var. Pella 86, SOY); experiment: Post-emerge greenhouse test, crop damage rating; conditions: 14 days after application
# Description: as §1, §3, §5, §4
compound,measurement,setting,value
CS(=O)(=O)Nc1ccc(Oc2cc(-n3c(=O)cc4n(c3=O)CCC4)c(F)cc2Cl)cc1 [Compound 5-5],phytotoxicity rating SORHA,[1]; 500 g ai/ha,0
same,phytotoxicity rating ECHCG,[2]; 500 g ai/ha,0
same,phytotoxicity rating SETVI,[3]; 500 g ai/ha,0
same,phytotoxicity rating IPOHE,[4]; 500 g ai/ha,0
same,phytotoxicity rating CHEAL,[5]; 500 g ai/ha,100
same,phytotoxicity rating DIGSA,[6]; 500 g ai/ha,0
same,phytotoxicity rating AMARE,[7]; 500 g ai/ha,95
same,phytotoxicity rating CASOB,[8]; 500 g ai/ha,0
same,phytotoxicity rating ABUTH,[9]; 500 g ai/ha,50
same,crop damage rating CORN,[10]; 500 g ai/ha,0
same,crop damage rating RICE,[11]; 500 g ai/ha,0
same,crop damage rating SOY,[12]; 500 g ai/ha,10
same,SORHA phytotoxicity rating (0-100),[13]; 500 g al/ha,0
same,ECHCG phytotoxicity rating (0-100),[14]; 500 g al/ha,0
same,SETVI phytotoxicity rating (0-100),[15]; 500 g al/ha,0
same,IPOHE phytotoxicity rating (0-100),[16]; 500 g al/ha,0
same,CHEAL phytotoxicity rating (0-100),[17]; 500 g al/ha,0
same,DIGSA phytotoxicity rating (0-100),[18]; 500 g al/ha,0
same,AMARE phytotoxicity rating (0-100),[19]; 500 g al/ha,0
same,CASOB phytotoxicity rating (0-100),[20]; 500 g al/ha,0
same,ABUTH phytotoxicity rating (0-100),[21]; 500 g al/ha,0
same,CORN crop damage rating (0-100),[22]; 500 g al/ha,0
same,RICE crop damage rating (0-100),[23]; 500 g al/ha,0
same,SOY crop damage rating (0-100),[24]; 500 g al/ha,0
N#Cc1cccnc1Oc1cc(-n2c(=O)cc3n(c2=O)CCC3)c(F)cc1Cl [Compound 5-9],phytotoxicity rating SORHA,[1]; 1000 g ai/ha,90
same,phytotoxicity rating ECHCG,[2]; 1000 g ai/ha,0
same,phytotoxicity rating SETVI,[3]; 1000 g ai/ha,90
same,phytotoxicity rating IPOHE,[4]; 1000 g ai/ha,100
same,phytotoxicity rating CHEAL,[5]; 1000 g ai/ha,100
same,phytotoxicity rating DIGSA,[6]; 1000 g ai/ha,90
same,phytotoxicity rating AMARE,[7]; 1000 g ai/ha,80
same,phytotoxicity rating CASOB,[8]; 1000 g ai/ha,30
same,phytotoxicity rating ABUTH,[9]; 1000 g ai/ha,100
same,crop damage rating CORN,[10]; 1000 g ai/ha,0
same,crop damage rating RICE,[11]; 1000 g ai/ha,50
same,crop damage rating SOY,[12]; 1000 g ai/ha,50
same,SORHA phytotoxicity rating (0-100),[13]; 1000 g al/ha,0
same,ECHCG phytotoxicity rating (0-100),[14]; 1000 g al/ha,0
same,SETVI phytotoxicity rating (0-100),[15]; 1000 g al/ha,10
same,IPOHE phytotoxicity rating (0-100),[16]; 1000 g al/ha,90
same,CHEAL phytotoxicity rating (0-100),[17]; 1000 g al/ha,70
same,DIGSA phytotoxicity rating (0-100),[18]; 1000 g al/ha,0
same,AMARE phytotoxicity rating (0-100),[19]; 1000 g al/ha,50
same,CASOB phytotoxicity rating (0-100),[20]; 1000 g al/ha,30
same,ABUTH phytotoxicity rating (0-100),[21]; 1000 g al/ha,100
same,CORN crop damage rating (0-100),[22]; 1000 g al/ha,5
same,RICE crop damage rating (0-100),[23]; 1000 g al/ha,25
same,SOY crop damage rating (0-100),[24]; 1000 g al/ha,30
